In patent US20230087118A1, “IMIDAZO[1,2-a][sequence] DERIVATIVES AND THEIR USE IN THE TREATMENT OF DISEASE” (priority 2019, published 2023):

target: T1, IRAK4 (Homo sapiens, UniProt Q9NWZ3); test: biochemical
T1 sequence (Q9NWZ3 1-460): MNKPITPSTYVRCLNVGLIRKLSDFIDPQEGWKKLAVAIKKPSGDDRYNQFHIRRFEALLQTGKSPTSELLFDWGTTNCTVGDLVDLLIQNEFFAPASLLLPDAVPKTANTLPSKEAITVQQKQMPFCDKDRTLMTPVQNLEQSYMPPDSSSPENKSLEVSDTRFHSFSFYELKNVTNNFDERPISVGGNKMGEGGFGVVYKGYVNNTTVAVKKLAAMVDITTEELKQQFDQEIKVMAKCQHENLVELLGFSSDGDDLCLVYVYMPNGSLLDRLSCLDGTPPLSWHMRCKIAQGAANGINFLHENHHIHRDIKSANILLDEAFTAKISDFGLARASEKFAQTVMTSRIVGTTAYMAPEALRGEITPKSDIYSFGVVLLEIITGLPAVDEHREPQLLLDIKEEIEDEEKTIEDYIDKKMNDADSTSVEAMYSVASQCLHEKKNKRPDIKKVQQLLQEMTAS

Row | IC50 [nM] | SMILES
1 | 6.5 | CCOc1cc(C(=O)Nc2cccc(C(F)F)n2)cn2cc([C@@H]3CCCOC3)nc12 (single isomer, unassigned) [Example 54]
2 | 13.5 | CCOc1cc(C(=O)Nc2cccc(C(F)F)n2)cn2cc([C@H]3CCCOC3)nc12 (single isomer, unassigned) [Example 55]
3 | 25 | CCOc1cc2nc([C@H]3C[C@@H]3F)cn2cc1C(=O)Nc1cccc(OC)n1 (single isomer, unassigned) [Example 66]
4 | 39.7 | CCOc1cc2nc([C@@H]3C[C@H]3F)cn2cc1C(=O)Nc1cccc(OC)n1 (single isomer, unassigned) [Example 67]
5 | 44.4 | CCOc1cc2nc([C@@H]3CC3(F)F)cn2cc1C(=O)Nc1cccc(OC)n1 (single isomer, unassigned) [Example 69]
6 | 16.9 | COc1nc(C(=O)Nc2cccc(C(F)(F)F)n2)cn2cc(C[C@@H]3CCOC3)nc12 (single isomer, unassigned) [Example 70]
7 | 31.1 | COc1nc(C(=O)Nc2cccc(C(F)(F)F)n2)cn2cc(C[C@H]3CCOC3)nc12 (single isomer, unassigned) [Example 71]
8 | 0.2 | CC(C)Oc1nc2nc([C@@]34CC[C@@](C)(C3)OC4)cn2cc1C(=O)Nc1cccc(C(F)F)n1 (single isomer, unassigned) [Example 576]
9 | 0.2 | CC(C)Oc1nc2nc([C@]34CC[C@](C)(C3)OC4)cn2cc1C(=O)Nc1cccc(C(F)F)n1 (single isomer, unassigned) [Example 577]
10 | 0.2 | COc1ncccc1NC(=O)c1cn2cc([C@@]34CC[C@@](C)(C3)OC4)nc2nc1OC(C)C (single isomer, unassigned) [Example 578]
11 | 0.4 | COc1ncccc1NC(=O)c1cn2cc([C@]34CC[C@](C)(C3)OC4)nc2nc1OC(C)C (single isomer, unassigned) [Example 579]
12 | 1.7 | CC(C)Oc1cc2nc([C@@]34CC[C@@H](C3)OC4)cn2cc1C(=O)Nc1ccn(C)n1 (single isomer, unassigned) [Example 580]
13 | 3.7 | CC(C)Oc1cc2nc([C@]34CC[C@H](C3)OC4)cn2cc1C(=O)Nc1ccn(C)n1 (single isomer, unassigned) [Example 581]
14 | 0.6 | CC(C)Oc1cc2nc([C@@]34CC[C@@H](C3)OC4)cn2cc1C(=O)Nc1cnn2cccnc12 (single isomer, unassigned) [Example 582]
15 | 0.8 | CC(C)Oc1cc2nc([C@]34CC[C@H](C3)OC4)cn2cc1C(=O)Nc1cnn2cccnc12 (single isomer, unassigned) [Example 583]
16 | 15.4 | C[C@@]12CC[C@@](c3cn4cc(C(=O)Nc5cccc(C(F)F)n5)cc(OC(F)F)c4n3)(CO1)C2 (single isomer, unassigned) [Example 584]
17 | 11.5 | C[C@]12CC[C@](c3cn4cc(C(=O)Nc5cccc(C(F)F)n5)cc(OC(F)F)c4n3)(CO1)C2 (single isomer, unassigned) [Example 585]
18 | 2 | COc1ncccc1NC(=O)c1cn2cc([C@]34CC[C@](C)(C3)OC4)nc2c(OC)n1 (single isomer, unassigned) [Example 586]
19 | 3.2 | COc1ncccc1NC(=O)c1cn2cc([C@@]34CC[C@@](C)(C3)OC4)nc2c(OC)n1 (single isomer, unassigned) [Example 587]
20 | 1.5 | CC(C)Oc1nc(C(=O)Nc2cccc(C(F)F)n2)cn2cc([C@@]34CC[C@@](C)(C3)OC4)nc12 (single isomer, unassigned) [Example 588]
21 | 2.4 | CC(C)Oc1nc(C(=O)Nc2cccc(C(F)F)n2)cn2cc([C@]34CC[C@](C)(C3)OC4)nc12 (single isomer, unassigned) [Example 589]
22 | 0.1 | CC(C)Oc1cc2nc([C@@]34CC[C@@H](C3)OC4)cn2cc1C(=O)Nc1cccc(C(F)F)n1 (single isomer, unassigned) [Example 590]
23 | 0.1 | CC(C)Oc1cc2nc([C@]34CC[C@H](C3)OC4)cn2cc1C(=O)Nc1cccc(C(F)F)n1 (single isomer, unassigned) [Example 591]
24 | 3.4 | CC(C)Oc1nc(C(=O)Nc2ccn(C)n2)cn2cc([C@@]34CC[C@@](C)(C3)OC4)nc12 (single isomer, unassigned) [Example 592]
25 | 6.5 | CC(C)Oc1nc(C(=O)Nc2ccn(C)n2)cn2cc([C@]34CC[C@](C)(C3)OC4)nc12 (single isomer, unassigned) [Example 593]
26 | 5.6 | CCOc1nc(C(=O)Nc2cc(F)cnc2OC)cn2cc([C@@H]3CCCOC3)nc12 (single isomer, unassigned) [Example 594]
27 | 12.8 | CCOc1nc(C(=O)Nc2cc(F)cnc2OC)cn2cc([C@H]3CCCOC3)nc12 (single isomer, unassigned) [Example 595]

Row | IC50 [nM] | SMILES
28 | 6.3 | CCOc1nc(C(=O)Nc2cc(F)cn(C)c2=O)cn2cc([C@@H]3CCCOC3)nc12 (single isomer, unassigned) [Example 596]
29 | 14 | CCOc1nc(C(=O)Nc2cc(F)cn(C)c2=O)cn2cc([C@H]3CCCOC3)nc12 (single isomer, unassigned) [Example 597]
30 | 4.1 | CCOc1nc(C(=O)Nc2cccnc2OC)cn2cc([C@H]3CCOC3)nc12 (single isomer, unassigned) [Example 598]
31 | 5.6 | CCOc1nc(C(=O)Nc2cccnc2OC)cn2cc([C@@H]3CCOC3)nc12 (single isomer, unassigned) [Example 599]
32 | 1.2 | CCOc1nc(C(=O)Nc2cccc(C(F)F)n2)cn2cc([C@]34CC[C@](C)(C3)OC4)nc12 (single isomer, unassigned) [Example 600]
33 | 1.9 | CCOc1nc(C(=O)Nc2cccc(C(F)F)n2)cn2cc([C@@]34CC[C@@](C)(C3)OC4)nc12 (single isomer, unassigned) [Example 601]
34 | 5.1 | CC(C)Oc1cc2nc([C@]34CC[C@](C)(C3)OC4)cn2cc1C(=O)Nc1cc(F)n(C)n1 (single isomer, unassigned) [Example 602]
35 | 5.3 | CC(C)Oc1cc2nc([C@@]34CC[C@@](C)(C3)OC4)cn2cc1C(=O)Nc1cc(F)n(C)n1 (single isomer, unassigned) [Example 603]
36 | 0.3 | CCOc1nc(C(=O)Nc2cccnc2OC)cn2cc([C@]34CC[C@](C)(C3)OC4)nc12 (single isomer, unassigned) [Example 604]
37 | 0.4 | CCOc1nc(C(=O)Nc2cccnc2OC)cn2cc([C@@]34CC[C@@](C)(C3)OC4)nc12 (single isomer, unassigned) [Example 605]
38 | 2.3 | CC(C)Oc1cc2nc([C@@]34CC[C@@](C)(C3)OC4)cn2cc1C(=O)Nc1ccn(C)n1 (single isomer, unassigned) [Example 606]
39 | 3.1 | CC(C)Oc1cc2nc([C@]34CC[C@](C)(C3)OC4)cn2cc1C(=O)Nc1ccn(C)n1 (single isomer, unassigned) [Example 607]
40 | 0.1 | CC(C)Oc1cc2nc([C@]34CC[C@](C)(C3)OC4)cn2cc1C(=O)Nc1cccc(C(F)F)n1 (single isomer, unassigned) [Example 608]
41 | 0.1 | CC(C)Oc1cc2nc([C@@]34CC[C@@](C)(C3)OC4)cn2cc1C(=O)Nc1cccc(C(F)F)n1 (single isomer, unassigned) [Example 609]
42 | 0.8 | Cn1ccc(NC(=O)c2cn3cc([C@@]45CC[C@@](C)(C4)OC5)nc3cc2OC2CCC2)n1 (single isomer, unassigned) [Example 610]
43 | 1.3 | Cn1ccc(NC(=O)c2cn3cc([C@]45CC[C@](C)(C4)OC5)nc3cc2OC2CCC2)n1 (single isomer, unassigned) [Example 611]
44 | 0.4 | CC(C)Oc1nc2nc([C@@]34CC[C@@](C)(C3)OC4)cn2cc1C(=O)Nc1cnn2cccnc12 (single isomer, unassigned) [Example 612]
45 | 0.5 | CC(C)Oc1nc2nc([C@]34CC[C@](C)(C3)OC4)cn2cc1C(=O)Nc1cnn2cccnc12 (single isomer, unassigned) [Example 613]
46 | 0.2 | CC(C)Oc1cc2nc([C@]34CC[C@](C)(C3)OC4)cn2cc1C(=O)Nc1cnn2cccnc12 (single isomer, unassigned) [Example 614]
47 | 0.2 | CC(C)Oc1cc2nc([C@@]34CC[C@@](C)(C3)OC4)cn2cc1C(=O)Nc1cnn2cccnc12 (single isomer, unassigned) [Example 615]
48 | 0.2 | Cc1cnc2c(NC(=O)c3cn4cc([C@@]56CC[C@@](C)(C5)OC6)nc4nc3OC(C)C)cnn2c1 (single isomer, unassigned) [Example 616]
49 | 0.6 | Cc1cnc2c(NC(=O)c3cn4cc([C@]56CC[C@](C)(C5)OC6)nc4nc3OC(C)C)cnn2c1 (single isomer, unassigned) [Example 617]
50 | 0.6 | C[C@@H](Oc1cc2nc(C34COC(C)(C3)C4)cn2cc1C(=O)Nc1cccc(C(F)F)n1)C(F)(F)F (single isomer, unassigned) [Example 618]
51 | 0.1 | CC(Oc1cc2nc(C34COC(C)(C3)C4)cn2cc1C(=O)Nc1cccc(C(F)F)n1)C(F)(F)F (single isomer, unassigned) [Example 619]
52 | 0.6 | CC(C)Oc1cc2nc([C@@]34CC[C@@](C)(C3)OC4)cn2cc1C(=O)Nc1cccn(C)c1=O (single isomer, unassigned) [Example 620]
53 | 1.4 | CC(C)Oc1cc2nc([C@]34CC[C@](C)(C3)OC4)cn2cc1C(=O)Nc1cccn(C)c1=O (single isomer, unassigned) [Example 621]
